We go through one compound from PMC7714403 (JCI Insight, 2020).

Test in all cases: KiNativ, MOLM13 live cells
What all share (type): cell-based

In one assay the target is PEK (Homo sapiens, UniProt Q9NZJ5). The following applies: 100 nM, 2 hours, Lys2, read-out: Inhibition vs DMSO. The procedure: (§1) Samples were analyzed by KiNativ in situ kinase profiling by ActivX Biosciences.
Another assay concerns the target PKN1 (Homo sapiens, UniProt Q16512). The following applies: MOLM-13; 100 nM, 2 hours; Lys2; read-out: Inhibition vs DMSO. The procedure: as §1
Another assay concerns the target T1, PAN3 (Homo sapiens, UniProt Q58A45).
T1 sequence (Q58A45 1-887): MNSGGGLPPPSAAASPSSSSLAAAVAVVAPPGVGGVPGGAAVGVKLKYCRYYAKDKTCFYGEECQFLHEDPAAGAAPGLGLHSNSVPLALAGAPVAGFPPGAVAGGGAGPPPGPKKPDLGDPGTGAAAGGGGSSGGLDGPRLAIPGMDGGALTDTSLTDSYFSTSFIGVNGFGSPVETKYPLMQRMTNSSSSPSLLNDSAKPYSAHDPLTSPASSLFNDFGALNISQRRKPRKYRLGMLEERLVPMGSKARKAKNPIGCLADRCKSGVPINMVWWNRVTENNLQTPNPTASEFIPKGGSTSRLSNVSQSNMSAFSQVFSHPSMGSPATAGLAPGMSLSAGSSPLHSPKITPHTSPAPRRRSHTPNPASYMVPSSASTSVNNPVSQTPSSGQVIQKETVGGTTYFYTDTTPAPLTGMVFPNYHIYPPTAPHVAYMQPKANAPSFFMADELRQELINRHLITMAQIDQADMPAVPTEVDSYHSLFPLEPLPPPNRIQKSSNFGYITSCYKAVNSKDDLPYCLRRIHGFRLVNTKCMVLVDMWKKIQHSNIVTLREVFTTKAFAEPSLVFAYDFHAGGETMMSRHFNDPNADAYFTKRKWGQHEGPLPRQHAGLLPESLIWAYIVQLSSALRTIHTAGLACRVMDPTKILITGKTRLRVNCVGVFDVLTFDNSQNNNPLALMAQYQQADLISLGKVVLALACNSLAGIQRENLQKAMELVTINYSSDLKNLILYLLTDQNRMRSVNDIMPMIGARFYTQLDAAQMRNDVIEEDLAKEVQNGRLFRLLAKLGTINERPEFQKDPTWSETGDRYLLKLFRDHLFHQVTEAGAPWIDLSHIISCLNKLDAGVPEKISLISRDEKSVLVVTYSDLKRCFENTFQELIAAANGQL
The following applies: MOLM-13, 2 h, 100 nM, ATP, read-out: Inhibition vs DMSO. The procedure: as §1

Another assay has as its target IKKe (Homo sapiens, UniProt Q14164). The following applies: MOLM-13; 100 nM, 2 hours; Lys1; read-out: Inhibition vs DMSO. The procedure:
as §1

The target in another assay is p38a (Homo sapiens, UniProt Q16539). The following applies: 100 nM, 2 hours. On the procedure: as §1
Chain of p38a (Q16539 whole entry): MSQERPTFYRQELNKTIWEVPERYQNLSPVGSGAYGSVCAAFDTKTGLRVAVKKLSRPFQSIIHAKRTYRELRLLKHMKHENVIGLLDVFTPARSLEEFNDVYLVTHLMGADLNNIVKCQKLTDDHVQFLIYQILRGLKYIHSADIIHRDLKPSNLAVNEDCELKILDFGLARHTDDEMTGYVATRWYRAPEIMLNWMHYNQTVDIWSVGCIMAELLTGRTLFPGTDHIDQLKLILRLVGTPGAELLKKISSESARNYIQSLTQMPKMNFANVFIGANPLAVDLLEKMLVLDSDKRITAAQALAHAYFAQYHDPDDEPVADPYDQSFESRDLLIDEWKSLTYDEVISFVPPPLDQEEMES
A further assay deals with ARAF (Homo sapiens, UniProt P10398). The following applies: MOLM-13; 100 nM, 2 hours; Lys2; read-out: Inhibition vs DMSO. The procedure: as §1
The target of another assay is PIP4K2B (Homo sapiens, UniProt P78356). As to conditions: MOLM-13; 100 nM, 2 hours; ATP; read-out: Inhibition vs DMSO. On the procedure:
as §1

Another assay deals with PYK2 (Homo sapiens, UniProt Q14289). As to conditions: MOLM-13; 100 nM, 2 hours; Activation Loop; read-out: Inhibition vs DMSO. The procedure: as §1
The next assay addresses PFTAIRE1 (Homo sapiens, UniProt O94921). The following applies: 100 nM, 2 hours; Lys1. On the procedure: as §1
The next assay addresses RIPK3 (Homo sapiens, UniProt Q9Y572). As to conditions: MOLM-13; 100 nM, 2 hours; Lys2; read-out: Inhibition vs DMSO. The procedure:
as §1

The target in a further assay is LOK (Homo sapiens, UniProt O94804). As to conditions: 100 nM, 2 hours. The procedure: as §1
Chain of LOK (O94804 whole entry): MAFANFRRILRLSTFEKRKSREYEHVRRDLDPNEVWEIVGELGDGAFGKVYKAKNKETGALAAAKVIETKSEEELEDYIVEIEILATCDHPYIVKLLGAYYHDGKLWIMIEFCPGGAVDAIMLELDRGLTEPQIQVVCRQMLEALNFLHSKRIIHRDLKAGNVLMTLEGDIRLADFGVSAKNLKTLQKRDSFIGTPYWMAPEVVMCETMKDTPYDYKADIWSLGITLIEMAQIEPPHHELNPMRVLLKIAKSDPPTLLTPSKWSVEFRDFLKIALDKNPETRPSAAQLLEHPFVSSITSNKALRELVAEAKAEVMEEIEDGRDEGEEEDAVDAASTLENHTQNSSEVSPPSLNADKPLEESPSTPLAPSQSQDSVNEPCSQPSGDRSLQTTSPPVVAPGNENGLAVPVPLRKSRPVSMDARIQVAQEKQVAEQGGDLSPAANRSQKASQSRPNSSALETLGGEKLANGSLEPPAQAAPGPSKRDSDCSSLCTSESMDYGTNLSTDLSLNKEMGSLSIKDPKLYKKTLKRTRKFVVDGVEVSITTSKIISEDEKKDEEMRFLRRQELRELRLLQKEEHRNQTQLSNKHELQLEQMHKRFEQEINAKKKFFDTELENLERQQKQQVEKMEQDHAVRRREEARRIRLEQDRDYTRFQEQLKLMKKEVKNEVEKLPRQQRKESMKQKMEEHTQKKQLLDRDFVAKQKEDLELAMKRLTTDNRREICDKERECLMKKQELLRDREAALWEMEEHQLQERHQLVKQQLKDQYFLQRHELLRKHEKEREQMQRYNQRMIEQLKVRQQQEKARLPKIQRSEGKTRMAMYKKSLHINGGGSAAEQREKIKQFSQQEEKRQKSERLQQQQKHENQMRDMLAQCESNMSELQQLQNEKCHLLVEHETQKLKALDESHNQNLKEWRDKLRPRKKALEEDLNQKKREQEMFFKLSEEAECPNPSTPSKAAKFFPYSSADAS
A further assay addresses ULK3 (Homo sapiens, UniProt Q6PHR2). As to conditions: 100 nM, 2 hours; Lys1. On the procedure:
as §1

In a further assay the target is T2, NEK9 (Homo sapiens, UniProt Q8TD19).
T2 sequence (Q8TD19 1-979): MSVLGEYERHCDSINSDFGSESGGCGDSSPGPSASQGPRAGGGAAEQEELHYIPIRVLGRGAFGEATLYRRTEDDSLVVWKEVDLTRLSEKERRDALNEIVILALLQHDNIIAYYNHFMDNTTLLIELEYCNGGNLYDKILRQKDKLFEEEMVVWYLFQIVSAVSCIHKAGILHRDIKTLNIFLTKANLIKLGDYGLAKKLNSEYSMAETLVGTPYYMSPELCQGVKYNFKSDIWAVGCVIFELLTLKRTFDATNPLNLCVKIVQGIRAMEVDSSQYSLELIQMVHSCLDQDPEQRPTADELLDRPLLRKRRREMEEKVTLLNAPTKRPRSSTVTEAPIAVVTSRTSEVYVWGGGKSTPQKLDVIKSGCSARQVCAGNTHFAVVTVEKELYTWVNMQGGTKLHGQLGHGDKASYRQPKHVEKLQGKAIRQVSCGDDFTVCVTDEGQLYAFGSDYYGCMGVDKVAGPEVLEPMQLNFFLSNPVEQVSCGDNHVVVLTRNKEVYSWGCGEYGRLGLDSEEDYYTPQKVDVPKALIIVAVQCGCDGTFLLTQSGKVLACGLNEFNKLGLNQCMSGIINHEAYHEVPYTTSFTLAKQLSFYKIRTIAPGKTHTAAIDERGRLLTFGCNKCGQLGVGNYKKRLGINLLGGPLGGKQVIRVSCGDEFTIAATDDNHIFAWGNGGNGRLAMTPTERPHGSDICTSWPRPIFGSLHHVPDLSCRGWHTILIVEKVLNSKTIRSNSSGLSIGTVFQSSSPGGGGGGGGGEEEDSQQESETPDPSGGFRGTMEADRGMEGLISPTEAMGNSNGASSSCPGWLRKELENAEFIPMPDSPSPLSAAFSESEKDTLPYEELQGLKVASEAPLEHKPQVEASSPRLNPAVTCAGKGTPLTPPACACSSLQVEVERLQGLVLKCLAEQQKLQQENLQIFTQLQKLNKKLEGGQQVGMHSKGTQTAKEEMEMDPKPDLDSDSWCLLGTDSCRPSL
The following applies: MOLM-13, 2 h, 100 nM. The procedure: as §1

A further assay addresses LYN (Homo sapiens, UniProt P07948). As to conditions: MOLM-13; 100 nM, 2 hours; Activation Loop; read-out: Inhibition vs DMSO. On the procedure: as §1

What is called inhibition is the change of the read-out against control, counted positive when it falls.

Read-outs that look alike come from different tables or passages of the source.

Chain of PIP4K2B (P78356 whole entry): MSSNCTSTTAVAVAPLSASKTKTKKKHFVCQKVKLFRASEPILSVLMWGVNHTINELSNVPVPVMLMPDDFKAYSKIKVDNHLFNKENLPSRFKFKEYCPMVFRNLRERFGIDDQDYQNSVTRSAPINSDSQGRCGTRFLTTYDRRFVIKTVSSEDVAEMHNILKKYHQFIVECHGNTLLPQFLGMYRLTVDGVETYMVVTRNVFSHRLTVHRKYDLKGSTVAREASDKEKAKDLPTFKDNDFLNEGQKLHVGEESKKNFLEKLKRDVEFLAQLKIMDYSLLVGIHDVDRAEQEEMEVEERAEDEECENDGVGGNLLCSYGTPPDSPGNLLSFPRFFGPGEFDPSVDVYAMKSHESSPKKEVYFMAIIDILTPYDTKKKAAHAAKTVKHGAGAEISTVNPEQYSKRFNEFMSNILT
Chain of LYN (P07948 whole entry): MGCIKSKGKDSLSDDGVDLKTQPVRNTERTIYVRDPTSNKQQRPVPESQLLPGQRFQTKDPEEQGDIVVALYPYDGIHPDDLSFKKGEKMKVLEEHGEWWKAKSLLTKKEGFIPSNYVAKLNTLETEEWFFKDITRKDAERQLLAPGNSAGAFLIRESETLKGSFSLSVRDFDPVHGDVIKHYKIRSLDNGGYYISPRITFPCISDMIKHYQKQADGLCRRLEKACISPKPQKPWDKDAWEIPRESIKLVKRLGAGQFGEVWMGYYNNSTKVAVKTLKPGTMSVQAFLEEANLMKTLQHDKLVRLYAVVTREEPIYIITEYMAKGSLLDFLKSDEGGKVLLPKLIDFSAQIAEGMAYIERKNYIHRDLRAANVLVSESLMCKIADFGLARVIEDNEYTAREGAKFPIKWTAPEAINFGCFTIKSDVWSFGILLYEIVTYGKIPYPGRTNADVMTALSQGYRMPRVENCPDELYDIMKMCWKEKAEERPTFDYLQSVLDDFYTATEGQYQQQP
Chain of IKKe (Q14164 whole entry): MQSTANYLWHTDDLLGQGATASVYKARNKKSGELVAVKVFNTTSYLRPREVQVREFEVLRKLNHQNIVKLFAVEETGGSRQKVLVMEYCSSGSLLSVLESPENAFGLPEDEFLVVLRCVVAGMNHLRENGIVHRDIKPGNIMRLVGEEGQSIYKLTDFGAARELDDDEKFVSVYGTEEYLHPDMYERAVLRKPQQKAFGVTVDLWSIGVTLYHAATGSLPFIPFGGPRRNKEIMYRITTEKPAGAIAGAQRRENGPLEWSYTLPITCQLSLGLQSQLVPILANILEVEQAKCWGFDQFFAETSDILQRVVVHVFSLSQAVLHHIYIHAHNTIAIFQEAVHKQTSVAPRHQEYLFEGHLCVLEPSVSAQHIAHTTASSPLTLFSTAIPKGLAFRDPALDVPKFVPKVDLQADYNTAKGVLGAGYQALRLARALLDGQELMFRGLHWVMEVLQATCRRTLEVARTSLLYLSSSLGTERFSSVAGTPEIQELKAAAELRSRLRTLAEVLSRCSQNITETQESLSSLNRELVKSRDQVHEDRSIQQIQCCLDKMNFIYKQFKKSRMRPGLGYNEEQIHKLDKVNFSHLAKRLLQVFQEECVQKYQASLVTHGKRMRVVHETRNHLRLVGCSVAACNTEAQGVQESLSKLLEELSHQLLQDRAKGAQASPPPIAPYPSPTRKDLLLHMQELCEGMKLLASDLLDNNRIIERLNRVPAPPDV
Chain of RIPK3 (Q9Y572 whole entry): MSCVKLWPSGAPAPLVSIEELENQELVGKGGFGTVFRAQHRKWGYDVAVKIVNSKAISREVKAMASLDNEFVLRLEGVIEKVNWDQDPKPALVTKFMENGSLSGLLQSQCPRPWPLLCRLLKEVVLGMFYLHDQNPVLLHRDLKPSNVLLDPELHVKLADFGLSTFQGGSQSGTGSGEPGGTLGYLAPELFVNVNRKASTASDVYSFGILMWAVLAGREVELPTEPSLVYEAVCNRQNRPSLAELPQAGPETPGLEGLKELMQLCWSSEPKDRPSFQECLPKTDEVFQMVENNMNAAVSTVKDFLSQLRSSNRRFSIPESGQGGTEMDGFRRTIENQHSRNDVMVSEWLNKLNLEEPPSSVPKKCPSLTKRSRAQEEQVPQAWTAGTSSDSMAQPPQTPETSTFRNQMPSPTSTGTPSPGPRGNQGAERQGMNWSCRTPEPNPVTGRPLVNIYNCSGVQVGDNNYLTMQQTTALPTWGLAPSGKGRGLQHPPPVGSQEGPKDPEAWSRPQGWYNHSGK
Chain of ULK3 (Q6PHR2 whole entry): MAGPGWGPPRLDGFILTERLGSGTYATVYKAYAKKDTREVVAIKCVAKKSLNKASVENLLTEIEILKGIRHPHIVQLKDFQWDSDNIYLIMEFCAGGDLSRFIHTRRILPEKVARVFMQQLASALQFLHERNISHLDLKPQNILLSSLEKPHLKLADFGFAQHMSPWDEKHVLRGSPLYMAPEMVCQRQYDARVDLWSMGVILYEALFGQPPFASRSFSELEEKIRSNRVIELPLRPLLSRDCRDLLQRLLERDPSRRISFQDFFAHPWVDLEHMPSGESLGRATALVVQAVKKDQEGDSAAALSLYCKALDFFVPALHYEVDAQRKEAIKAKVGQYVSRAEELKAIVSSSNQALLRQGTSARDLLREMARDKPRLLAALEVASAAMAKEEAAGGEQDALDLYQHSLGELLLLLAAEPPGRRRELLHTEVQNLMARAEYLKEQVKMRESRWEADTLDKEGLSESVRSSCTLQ
Chain of PKN1 (Q16512 whole entry): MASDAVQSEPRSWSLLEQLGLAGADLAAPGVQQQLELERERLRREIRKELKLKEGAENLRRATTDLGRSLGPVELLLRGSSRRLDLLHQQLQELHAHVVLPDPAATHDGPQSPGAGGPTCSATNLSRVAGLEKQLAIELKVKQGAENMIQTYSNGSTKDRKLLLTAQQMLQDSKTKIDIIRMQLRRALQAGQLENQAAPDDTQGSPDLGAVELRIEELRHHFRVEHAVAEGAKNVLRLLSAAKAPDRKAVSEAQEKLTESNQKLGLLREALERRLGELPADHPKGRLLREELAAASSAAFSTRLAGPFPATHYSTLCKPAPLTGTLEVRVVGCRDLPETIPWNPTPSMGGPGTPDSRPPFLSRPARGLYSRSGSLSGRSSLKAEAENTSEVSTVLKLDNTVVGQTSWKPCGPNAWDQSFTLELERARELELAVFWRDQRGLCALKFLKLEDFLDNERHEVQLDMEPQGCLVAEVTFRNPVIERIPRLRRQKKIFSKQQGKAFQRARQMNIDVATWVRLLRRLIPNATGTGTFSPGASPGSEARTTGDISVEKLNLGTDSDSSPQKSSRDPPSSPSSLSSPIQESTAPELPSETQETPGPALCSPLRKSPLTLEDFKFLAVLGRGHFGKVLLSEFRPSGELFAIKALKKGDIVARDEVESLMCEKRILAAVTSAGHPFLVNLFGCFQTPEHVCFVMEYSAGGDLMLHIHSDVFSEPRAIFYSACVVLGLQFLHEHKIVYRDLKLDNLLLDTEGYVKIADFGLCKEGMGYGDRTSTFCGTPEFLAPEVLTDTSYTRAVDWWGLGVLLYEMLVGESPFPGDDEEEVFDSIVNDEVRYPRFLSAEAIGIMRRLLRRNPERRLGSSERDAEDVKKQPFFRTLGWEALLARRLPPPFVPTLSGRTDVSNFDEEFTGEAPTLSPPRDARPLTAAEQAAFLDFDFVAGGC

For the compound `CN1CCN(Cc2ccc(Nc3ncc(Cl)c(Nc4ccccc4S(=O)(=O)N(C)C)n3)cc2)CC1` [TP-0903], the inhibition at 0.1 µM on PEK was 1.7%; at PKN1, -25.2%; on PAN3 (IQKSSNFGYITSCYK), 11.2%; at PAN3 (VMDPTKILITGK), -0.5%; on IKKe, 19.3%; on ARAF, -2.9%. Moreover, the inhibition at 0.1 µM on PIP4K2B is -16.2%; on PYK2, 21.6%; on RIPK3, 6.4%; at NEK9 (Activation Loop, read-out: Inhibition vs DMSO), 45.7%; on NEK9 (Lys1, read-out: Inhibition vs DMSO) it was 48%; at NEK9 (Lys2, read-out: Inhibition vs DMSO), 48.8%. In addition, the inhibition at 0.1 µM at LYN was determined as 58.8%. The “Inhibition vs DMSO” value is given as -1.9% at p38a (Lys2); 17.3% at p38a (Other); 29.5% on PFTAIRE1; 56.8% at LOK (Lys1); 82.8% at LOK (Lys2); 28.7% at ULK3.
